Structures are written as SMILES. Some results are limits rather than exact numbers.

The subject of experiment [1] is p27. The experiment in a line: Western blot / immunoprecipitation of p27 and prenylated proteins in MDA-MB-468 cells. It counts as cell-based, human. On the set-up: Rap1 geranylgeranylation / HDJ-2 farnesylation / processing / p27 protein levels: dose or concentration left out as unconfirmed. The method, then: MDA-MB-468 cells were lysed using CelLytic™ M Cell Lysis Reagent (Sigma-Aldrich, St. Louis, Mo.) containing protease inhibitor cocktail, 2 mM phenylmethylsulfonylfluoride (PMSF), 2 mM Na3VO4, and 6.4 mg/ml p-nitrophenylphosphate (Sigma-Aldrich). Lysates were incubated overnight with p27 antibody (BD Biosciences, San Jose, Calif.) at 4° C. while rocking; after incubation protein A anti-IgG agarose beads were added and incubated for 2 h at 4° C., then washed four times with an excess of lysis buffer. Samples were then boiled at 100° C. for 10 min in 2×SDS-sample buffer and analyzed by Western blotting as described below.
To prepare whole cell lysates, cells were trypsinized, washed with phosphate buffered saline (PBS) twice, and lysed in 30 mM Hepes, pH 7.5, 10 mM NaCl, 5 mM MgCl2, 25 mM NaF, 1 mM EGTA, 1% Triton-X-100, 10% glycerol, protease inhibitor cocktail, 2 mM PMSF, 2 mM Na3VO4, and 6.4 mg/ml p-nitrophenylphosphate. Lysates were cleared by centrifugation at 12,000×g for 15 min, and the supernatants were collected as whole cell extracts. The protein concentration was determined by the Bradford assay. Proteins were separated by SDS-PAGE and transferred to nitrocellulose membranes, which were then blotted with antibodies specific for whole Rap1 or unprenylated Rap1, Ras, the C-terminal region of pRb, Akt (Santa Cruz Biotechnology, Santa Cruz, Calif.), phospho-Akt(S473) (Cell Signaling, Danvers, Mass.), p27 (BD Biosciences, San Jose, Calif.), phospho-p27(T187) (Invitrogen, Carlsbad, Calif.), HDJ-2 (Lab Vision Corporation, Fremont, Calif.), phosphotyrosine (Millipore, Billerica, Mass.), and β-actin (Sigma-Aldrich, St. Louis, Mo.). Select bands were quantified using AlphaEaseFC densitometry software (AlphaInnotech, San Leandro, Calif.).
Background: Immunoblotting shows a protein as a band on a membrane.

Experiment [2] concerns Rap1 geranylgeranylation. The experiment in a line: Rap1 geranylgeranylation in H-Ras transformed NIH 3T3 cells (Western blot). The following applies: H-Ras/3T3 cells. It counts as cell-based, murine. As for the experimental part: (§1) Human MDA-MB-468 and MDA-MB-231 breast cancer cells and murine NIH 3T3 cells were obtained from the ATCC and cultured in DMEM medium. Human SK-Br3 and BT-474 breast cancer cells (ATCC) were cultured in McCoy's 5a medium and Hybri-Care medium, respectively. Mouse embryonic fibroblast (MEF) cells from p27 wild-type and p27 null mice were grown in DMEM. All media were supplemented with 10% fetal calf serum, 10 units/ml penicillin, and 10 μg/ml streptomycin. Subconfluent cells were treated with different concentrations of GGTI, FTI or DMSO vehicle for specific time periods. After treatment, cells were harvested by trypsinization.
To prepare whole cell lysates, cells were trypsinized, washed with phosphate buffered saline (PBS) twice, and lysed in 30 mM Hepes, pH 7.5, 10 mM NaCl, 5 mM MgCl2, 25 mM NaF, 1 mM EGTA, 1% Triton-X-100, 10% glycerol, protease inhibitor cocktail, 2 mM PMSF, 2 mM Na3VO4, and 6.4 mg/ml p-nitrophenylphosphate. Lysates were cleared by centrifugation at 12,000×g for 15 min, and the supernatants were collected as whole cell extracts. The protein concentration was determined by the Bradford assay. […] Select bands were quantified using AlphaEaseFC densitometry software (AlphaInnotech, San Leandro, Calif.). […]

The subject of experiment [3] is MDA-MB-468 breast cancer cells. The experiment in a line: Trypan Blue exclusion assay (proliferation, cell death) in MDA-MB-468 cells. It counts as cell-based, human. The method, then:
as §1
Pre-designed siRNA to p27 (Cat #118714) and the negative control (Cat #4611) were purchased from Ambion (Austin, Tex.). Twenty-four hours before transfection, MDA-MB-468 cells were plated onto twelve-well plates in fresh DMEM medium containing 10% FBS and no antibiotics. Transient transfection of siRNA was carried out using Oligofectamine reagent (Invitrogen, Carlsbad, Calif.), following the manufacturer's instructions. In brief, 5 nM of p27 siRNA or control siRNA were mixed with Opti-MEM medium (Invitrogen) in such a way so that the total volume went to 90 μl, and then complexed with a mixture of 2 μl of Oligofectamine and 8 μl Opti-MEM; the total volume of RNA:Oligofectamine complex was 100 μl. The RNA:Oligofectamine complex was then incubated for 20 min at room temperature before adding to the cells. Before transfection, the old medium was discarded, cells were washed once with fresh Opti-MEM and 400 μl of fresh Opti-MEM placed into each well before adding the RNA:Oligofectamine complex to each well. The final diluted volume on each well was 500 μl. After 8 h, 500 μl DMEM containing 30% FBS was added to each well and cells were further incubated for 40 h.
(§2) Adherent cells were harvested by trypsinization and diluted with 0.4% Trypan Blue dye and counted on a hemacytometer. Cells excluding the dye were scored as live cells, whereas cells absorbing the dye were scored as dead cells. Cell proliferation was determined by dividing the number of live cells in the treated sample by the number of live cells in the control, and the degree of cell death was expressed as percentage of dead cells of the total cell number.

In experiment [4] the test system is p27 null MEFs. Nature of the experiment: Trypan Blue exclusion assay in p27 null MEFs. The experiment is classed as cell-based, mouse. The following applies: 50 μM, 72 h. The method, then: as §1, §2
For experiment [5], the system named is p27 wild-type MEFs. The experiment in a line: Trypan Blue exclusion assay in p27 wild-type MEFs. The experiment is classed as cell-based, mouse. The following applies: 50 μM, 72 h, p27 wt MEFs. As for the experimental part:
as §1, §2

The test system of experiment [6] is p27. The experiment in a line: Immunofluorescence of p27 in MDA-MB-468 cells. The experiment is classed as cell-based, human. The following applies: 50 μM, 48 h. As for the experimental part:
MDA-MB-468 cells were plated on a glass coverslip and treated with 50 μM GGTI-2417 or DMSO as a control for 48 h. Medium was aspirated and the cells were washed twice with ice-cold sterile DPBS solution (Invitrogen, Carlsbad, Calif.), fixed with 4% paraformaldehyde at room temperature for 15 min, and then treated with 1% Nonidet P-40 for 30 min at room temperature. After blocking with 5% bovine serum albumin for 30 min at room temperature, cells were incubated with anti-p27 antibody (1:500) at room temperature for 1 h. After washing three times with DPBS solution, cells were incubated with FITC-conjugated secondary antibody (1:1000) for 1 h at room temperature. Cells were then washed three times with sterile DPBS solution, mounted using Vectashield mounting reagent (Vector Laboratories, Inc., Burlingame, Calif.) containing 4′,6′-diamidino-2-phenylindole (DAPI) for nuclear visualization, and analyzed using a Zeiss Axiovert Z-1 Imager microscope (Carl Zeiss, Oberkochen, Germany) at […]. Images were analyzed using ImagePro Plus 6.2 (Media Cybernetics, Bethesda, Md.).

On to `COC(=O)[C@H](CC(C)C)NC(=O)N1CCN(Cc2nc[nH]c2C)C(=O)[C@@H]1Cc1ccccc1` [GGTI-2417], for which, in experiment [1] (50 μM, MDA-MB-468), the “increase of p27 Tyr phosphorylation” value amounted to 3.5 fold and the “increase of p27 amounts (immunoprecipitated p27)” value is reported as 11.9 fold. Also, in experiment [1] (MDA-MB-468, 48 h), the “HDJ-2 farnesylation / processing” value is given as “not the farnesylation of HDJ-2”, the Rap1 geranylgeranylation result was “inhibited the geranylgeranylation of Rap1” and the p27 protein levels entry is “increased p27 protein levels in a time-dependent manner”. Further, the “selectivity for inhibition of cellular GGTase I compared to FTase” value in experiment [2] is listed as above 125 fold. Further, the IC50 in experiment [2] (48 h, read-out: IC50, inhibition of Rap1 geranylgeranylation) was determined as 400 ± 100 nM. The “tumor cell death in the presence of p27 siRNA” value in experiment [3] (5 nM p27 siRNA, 50 μM GGTI-2417 or 1 μM taxol) is “unable to induce tumor cell death”. The compound further had a tumor cell death in experiment [3] (50 μM, absence of p27 siRNA, vehicle 10.3%) of 37.2%. Further, the IC50 in experiment [3] (MDA-MB-468, 48 h, read-out: IC50, inhibition of cell proliferation) was around 4000 nM. In addition, the inhibition of proliferation in experiment [4] (MEFs lacking p27) was 61.6±8.1%. The cell death result in experiment [4] (p27 null MEFs, basal 27.5±2.1%) is “did not increase the number of dead cells”. This compound registered an inhibition of proliferation in experiment [5] of 89.0±3.1%. The compound also registered a cell death in experiment [5] (vehicle 22.4±7.2%) of 53.4±7.0%. For the same compound, in experiment [6], the “cytosolic p27 levels” value is “not affected significantly” and the “increase of nuclear levels of p27” value was 6 fold.

For the origin of these results see patent publication US10946012B2, “Methods for inducing tumor regression, inhibiting tumor growth, and inducing apoptosis in breast tumors with geranylgeranyltransferase I inhibitors” (H. Lee Moffitt Cancer Center and Research Institute, Inc., priority 2009, dated 2021).
